Data on one compound can be found in paper PMC8129907 (Journal of Bone and Joint Infection, 2021).

Read-outs that look alike come from different tables or passages of the source. Marks after values point to notes of the source that are not given here.

The subject of data set [1] is Commonly encountered bacteria in orthopaedic infections. Further details: method as in Rybak, 2006; EUCAST, 2019. To be noted: range for commonly encountered bacteria in orthopaedic infections; ref Rybak, 2006; EUCAST, 2019; cited from earlier work.
Data set [2] in a line: Plasma vancomycin concentrations after tibial intraosseous administration. To be noted: pig, 500 mg intraosseous, no tourniquet, mean (SD), n = 8.
Protocol: (§1) Eight female pigs, from the same supplier and raised under the same conditions, were included in the study (Danish Landrace Breed, age 5 months, weight 78–82 kg). The pigs were kept under general anesthesia with a continuous infusion of propofol (450–650 mg/h) and fentanyl (0.5–0.7 mg/h) throughout the entire study period. The arterial pH and body temperature were monitored and kept in the ranges of 7.37–7.52 and 36.4–40.0 ^∘ C, respectively. After the study, the pigs were euthanized using pentobarbital.
(§2) Afterwards, all probes were individually calibrated by the retrodialysis method by collecting a 60 min sample. […] The first three dialysates were collected at times 40, 80, and 120 min. Thereafter, dialysates were collected at 60 min intervals from times 120 to 720 min, giving a total of 13 samples from each compartment over 12 h. Blood samples were drawn from a central venous catheter at the midpoint of the microdialysis sample intervals. The dialysates were instantly stored at -80 ^∘ C until analysis. Blood samples were stored at 5 ^∘ C for a maximum of 4 h before being centrifuged at 3000 rpm for 10 min. The obtained plasma aliquots were then stored at -80 ^∘ C until analysis.
(§3) Intra-run (total) imprecisions for the assay were ±1.2 µg/mL (2 standard deviations – SD) at 6.6 and ±3.7 µg/mL (2 SD) at 29.1 µg/mL .
Standard pharmacokinetic parameters were determined separately for each compartment in each pig by non-compartmental analysis using Stata (v. 14.1, StataCorp LLC, College Station, TX, USA). The area under the concentration–time curve (AUC 0-last ) was calculated using the trapezoidal rule. The maxima of all the recorded concentrations were defined as peak drug concentration ( Cmax ) and enabled a calculation of the time to Cmax ( Tmax ). Half-life ( T1/2 ) was determined for all compartments except for tibial cortical bone and calculated as ln(2)/ λeq , where λeq is the terminal elimination rate constant estimated by linear regression of the log concentration on time. For AUC 0-last and Cmax , a mixed model for repeated measurements was applied, taking the variance between pigs into account. The model assumptions were tested by visual diagnosis of residuals, fitted values, and estimates of random effects. A correction for degrees of freedom due to small sample size was handled using the Kenward–Roger approximation method. The t test was used to determine relevant pairwise comparisons. A p value <0.05 was considered to be significant. A Spearman test was used to test the correlation between the distance of the intraosseous cannula and the adjacent cancellous bone drill hole with the peak drug concentration. Statistical analyses were also performed using Stata. […] Values below the quantification limit were set to zero.
The conditions of data set [3]: proximal tourniquet applied before intraosseous administration, ref Young et al., 2014, Chin et al., 2018, Rubio-Martinez et al., 2006, cited from earlier work.
The conditions of data set [4]: pig, 500 mg intraosseous, no tourniquet, microdialysis, mean (SD), n = 8; for AUC 0-last: 12 h.
Protocol: as §1
An intraosseous cannula (15 mm) was inserted into the medial tibial condyle approximately 10 mm distal to the epiphyseal line; see Fig. 1. Three tibial microdialysis probes were placed in drill holes, one in the adjacent cancellous bone parallel to and at a mean distance of 9 (range 7–10) mm from the intraosseous cannula tip (drill depth 35±1 mm), one in the cortical bone at the anterior–medial margin of the tibial diaphysis (drill depth 14±0.5 mm), and one within the intramedullary canal of the tibial diaphysis. All drill holes were made with a 2 mm drill, which was paused every few seconds to prevent overheating of the bone tissue. Subsequently, a probe was placed in the synovial fluid of the knee joint using a splittable introducer. Finally, a subcutaneous tissue probe was placed lateral to the knee joint. No tourniquet was applied. Correct positions of all the probes and the distance between the intraosseous cannula and the adjacent cancellous bone microdialysis catheter were verified by fluoroscopy.
Due to continuous perfusion of the microdialysis system, a complete equilibrium across the semipermeable membrane will never occur. The concentration in the dialysate will therefore only represent a fraction of the absolute tissue concentration, which is expressed as the relative recovery. Thus, relative recovery must be determined to assess the absolute tissue concentrations. In the present study, all microdialysis probes were individually calibrated in the beginning of the study using the retrodialysis by drug method (Scheller and Kolb, 1991).
In the present study we used CMA 107 precision pumps ( μ -Dialysis AB, Stockholm, Sweden) producing a flow rate of 1 µL/min and CMA 70 probes (membrane lengths 10 and 20 mm, molecular cutoff 20 kDa).
as §2, §3
Standard pharmacokinetic parameters were determined separately for each compartment in each pig by non-compartmental analysis using Stata (v. 14.1, StataCorp LLC, College Station, TX, USA). The area under the concentration–time curve (AUC 0-last ) was calculated using the trapezoidal rule. The maxima of all the recorded concentrations were defined as peak drug concentration ( Cmax ) and enabled a calculation of the time to Cmax ( Tmax ).
[5] abbreviates: intramedullary canal in the tibia.
[6] abbreviates: synovial fluid of the knee joint.

For the compound `CN[C@H](CC(C)C)C(=O)N[C@H]1C(=O)N[C@@H](CC(N)=O)C(=O)N[C@H]2C(=O)N[C@H]3C(=O)N[C@H](C(=O)N[C@H](C(=O)O)c4cc(O)cc(O)c4-c4cc3ccc4O)[C@H](O)c3ccc(c(Cl)c3)Oc3cc2cc(c3O[C@@H]2O[C@H](CO)[C@@H](O)[C@H](O)[C@H]2O[C@H]2C[C@](C)(N)[C@H](O)[C@H](C)O2)Oc2ccc(cc2Cl)[C@H]1O` [vancomycin], the “planktonic MIC” value in data set [1] is 0.5 to 4 µg/mL. The “AUC 0-last” value in data set [2] (plasma (free concentration, enzyme immunoassay), 12 h) is 3,673 (611) min µg/mL; in data set [4] (setting [5]) it was 1980 (908) ^a min µg/mL; in data set [4] (subcutaneous tissue), 1881 (691) ^a min µg/mL; in data set [4] (setting [6]) it was 1565 (758) ^a min µg/mL; in data set [4] (tibial cortical bone) it was 326 (331) min µg/mL. The “Cmax (peak drug concentration)” value in data set [2] (plasma (free concentration, enzyme immunoassay)) is recorded as 19 (2) µg/mL. Also, the T1/2 in data set [2] (plasma) is recorded as 254 (128) min; in data set [4] (setting [5]), 339 (332) min; in data set [4] (subcutaneous tissue), 361 (269) min; in data set [4] (setting [6]), 217 (140) min; in data set [4] (tibial cancellous bone), 279 (188) min. Further, the Tmax in data set [2] (plasma) was 20 (19) min; in data set [4] (setting [5]), 65 (26) min; in data set [4] (subcutaneous tissue), 70 (19) min; in data set [4] (setting [6]), 45 (21) min; in data set [4] (tibial cancellous bone), 111 (94) min; in data set [4] (tibial cortical bone), 405 (278) min. Further, in data set [3] (range), the “systemic vancomycin plasma levels after tourniquet deflation” value was 1.8 to 6.0 µg/mL. Besides, in data set [3], the “increase of plasma levels after tourniquet deflation” value is listed as 4–10 fold. The “systemic vancomycin plasma levels during tourniquet inflation” value in data set [3] is 0.0 to 2.7 µg/mL. Moreover, the “vancomycin concentration after 11.5 h (690 min), end concentration” value in data set [4] (tibial cancellous bone) is on record as 278 (469) µg/mL.
